In publication PMC7588429, “Structure/activity virtual screening and in vitro testing of small molecule inhibitors of 8-hydroxy-5-deazaflavin:NADPH oxidoreductase from gut methanogenic bacteria” (Scientific Reports, 2020):
Like-named read-outs stand apart in the source and are kept apart here. Each block holds one compound with its values, some of them ahead of it.

Experiments:
FNO from M. smithii [1] = target: T1, FNO from M. smithii (Methanobrevibacter smithii, UniProt A5UJ76); experiment: SPR optical biosensor binding to immobilized FNO; settings: for kon / koff / kass / kdiss: PBS pH 7.4; for kon: read-out: kass; for koff: read-out: kdiss
Method: FNO was covalently immobilized on a carboxylate surface according to the protocol described in the Materials and Methods section. The change in the signal related to immobilization of the enzyme (ΔR ≅ 1,000 arcsec) corresponded to the achievement of a partial Langmuir monolayer for a protein of 120 kDa (2 ng/mm^2). The affinities of FNO for the ten compounds of interest were derived from the fit of raw data (representative sensorgrams are shown in Fig. 8; full panel is provided in Supplemental Information) to a mono-exponential model.
FNO from M. smithii (isolated as described in the Supplementary Information) was covalently coupled to the carboxylate surface of the sensor via EDC/NHS chemistry. Upon successful immobilization of FNO, unreacted carboxyl groups were blocked with ethanolamine 1 M pH 8.5, and the surface was eventually equilibrated with PBS. Independent additions of each molecule at different concentrations (β-D-glucose pentacetate 1.25–62.5 µM; mangiferin 3.125–37.5 µM; baicalin 1.25–25 µM; frangulin A 30–480 nM; ononin 29–465 nM; 5z-caffeoylquinic acid […]; ZINC35442308 0.30–4.92 µM; ZINC248099510 0.31–4.93 µM; ZINC2120951 0.32–5.1 µM; ZINC9271779 0.32–5.2 µM) to surface-blocked FNO were performed, each time monitoring the association kinetics until equilibrium. […] The affinities between surface-blocked FNO and soluble ligands were derived from the fit of raw data to single exponential model.

FNO [2] = experiment: Competitive binding test with NADP+ on biosensor; set-up: species or system Methanobrevibacter smithii
Method: A competitive binding test between NADP^+ and three out of the ten compounds (with high, moderate and low affinity for FNO, respectively) was performed to identify the binding site on FNO. The protocol involved the addition of a given concentration of baicalin, mangiferin and β-D-glucose pentaacetate to both free and NADP^+-saturated FNO.

FNO from M. smithii [3] = target: T1, FNO from M. smithii; experiment: Fluorometric FNO activity inhibition assay (F420 reduction with NADPH); assay type: biochemical
Method: According to the fluorometric assay of FNO activity, we observed an evident decrease in F420 reduction rates upon 15 min preincubation of FNO with increasing levels of the ten representative compounds of interest (the superimposition of representative residual activity plots obtained with β-D-glucose pentaacetate, mangiferin and baicalin are shown in Fig. 11; the full panel is provided in Supplemental Information).
FNO catalyses the reduction of NADP^+ with F420H2 via hydride transfer, and the reverse reaction, i.e. the reduction of F420 with NADPH. Here, the spectrofluorometric assay of FNO activity was based on monitoring the decrease in F420 emission at 470 nm upon excitation at 420 nm. Briefly, FNO (4 nM) was incubated with 0.5 mM F420 (purified from T. roseum as described in the Supplementary Information) and 0.5 mM NADPH (this concentration was selected on the basis of Km values in other methanogenic organisms[42]) at 37 °C in the presence or in the absence of increasing concentrations of the compounds of interest in 50 mM sodium citrate, pH 6.0. […] The residual activity ( a ) was expressed as the ratio of the initial velocities of the product formation in the presence ( V0,i ) and in the absence ( V0 ) of a given inhibitor concentration [Ii]. Raw data were processed as described elsewhere.

FNO [4] = experiment: pH dependence of mangiferin-FNO binding (biosensor, linkage analysis); settings: 7.35 ± 0.33 in free enzyme
Method: In order to evaluate the effects of pH on the enzyme-ligand interaction, the binding of mangiferin (6.25–62.5 µM) to FNO was studied at different pH values in the range 6.0–8.0.
To evaluate the effects of pH on the enzyme-ligand interaction, the binding studies between mangiferin and FNO were replicated in a pH range between 6.4 and 8. The observed dependence of experimental KD from pH was analyzed according to a classic linkage relationship, protons being considered as heterotropic ligands for FNO[40]. This model involves a macromolecule (FNO) having a binding site for a ligand (mangiferin), and heterotropic binding sites able to accommodate a second ligand (H^+). These binding sites for protons present on the macromolecule can be grouped into two main sets: one with n binding sites with an ionization constant λ1, and one with m binding sites, each having an ionization constant equal to λ2. Therefore, the macromolecule can be described in three main ionization conditions: at low and at high pH values the fully protonated and the completely deprotonated forms prevail, respectively, whereas the intermediate form prevails at pH values equal to:1 pH=-logλ1-logλ2/2
Upon binding, the proton binding sites have their ionization constants shifted to λ3 and λ4, respectively. […]

FNO from M. smithii [5] = target: T1, FNO from M. smithii; experiment: Molecular docking (AutoDock Vina) onto the homology model of FNO; settings: predicted
Excerpt: The 8,012 compounds selected from the Zbc database subset on molecular weight and clogP criteria were individually docked against the homology model of FNO from M. smithii using a Perl/Python pipeline on AutoDock Vina. The residues constituting the catalytic site of FNO were retrieved from the available literature[19] and explicitly defined as the grid centre for all ligands. The quantitative results of docking in terms of ΔGpred of each highest-score pose were collected into a single array (ΔGpred values ranged between − 4.9 and − 10.5 kcal/mol), which was then merged with the other structural descriptors (as PSA, H-donors and acceptors, cLogP, MW, Drug-likeness, Total surface area) available for each compound as summarized in Supplementary Information.
In the absence of a crystallographic structure for FNO from M. smithii, its three-dimensional structure was obtained by homology modelling, according to a previously reported procedure. […]
8,012 molecules selected from the Zbc subset of ZINC database[36] on molecular weight (350–450 amu) and hydrophobicity (cLogP < 3.85) criteria were iteratively docked to the homology model of FNO from M. smithii using AutoDock Vina[37]. […] Structural properties of each molecule and calculated binding affinities to FNO were globally analysed with DataWarrior[38].

[6] = experimental equilibrium constant, read-out: KD,E
[7] = 0.5 mM NADPH, 15 min preincubation, pH 6.0, 37 °C
[8] = 0.5 mM NADPH, 15 min preincubation, pH 6.0, 37 °C, read-out: Ki

T1 sequence (A5UJ76 entry or part of it): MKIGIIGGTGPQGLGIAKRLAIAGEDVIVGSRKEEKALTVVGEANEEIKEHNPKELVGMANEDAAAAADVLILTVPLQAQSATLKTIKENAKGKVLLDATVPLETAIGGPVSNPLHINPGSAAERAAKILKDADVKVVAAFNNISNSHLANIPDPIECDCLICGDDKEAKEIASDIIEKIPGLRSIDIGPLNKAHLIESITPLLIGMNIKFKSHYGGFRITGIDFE

SMILES: O=C(O)[C@H]1O[C@@H](Oc2cc3oc(-c4ccccc4)cc(=O)c3c(O)c2O)[C@H](O)[C@@H](O)[C@@H]1O [Baicalin]
Kd (FNO from M. smithii [1]): 65 ± 28 nM
kon (FNO from M. smithii [1]): 3870 M⁻¹ s⁻¹
koff (FNO from M. smithii [1]): 0.00025 ± 0.0001 s⁻¹
biosensor response on NADP+-saturated FNO with respect to free enzyme (FNO [2]): significantly lower
Ki (FNO from M. smithii [3]): 45 ± 3 nM

SMILES: O=c1c2cc(O)c(O)cc2oc2cc(O)c([C@@H]3O[C@H](CO)[C@@H](O)[C@H](O)[C@H]3O)c(O)c12 [Mangiferin]
kon (FNO from M. smithii [1]): 4820 M⁻¹ s⁻¹
koff (FNO from M. smithii [1]): 0.002 ± 0.00097 s⁻¹
Kd (FNO from M. smithii [1]; [6]): 400 ± 200 nM
biosensor response on NADP+-saturated FNO with respect to free enzyme (FNO [2]): significantly lower
Ki (FNO from M. smithii [3]; [8]): 650 ± 250 nM
pKa of histidine residue in FNO-mangiferin complex (FNO [4]; pH 6.4 to 7.4): 5.26 ± 2.61
pKa of histidine residue in FNO-mangiferin complex (FNO [4]; pH 7.4 to 8.0): 8.21 ± 0.12
affinity for FNO with respect to ZINC05409528 (FNO from M. smithii [5]): nearly sevenfold lower affinity

SMILES: CC(=O)OC[C@H]1O[C@@H](OC(C)=O)[C@H](OC(C)=O)[C@@H](OC(C)=O)[C@@H]1OC(C)=O [β-D-glucose pentaacetate]
kon (FNO from M. smithii [1]): 2720 M⁻¹ s⁻¹
koff (FNO from M. smithii [1]): 0.013 ± 0.005 s⁻¹
Kd (FNO from M. smithii [1]; [6]): 4850 ± 1850 nM
biosensor response on NADP+-saturated FNO with respect to free enzyme (FNO [2]): significantly lower
Ki (FNO from M. smithii [3]; [8]): 3960 ± 200 nM

SMILES: Nc1ncnc2c1nc(NN=Cc1ccccc1)n2C1OC(CO)C(O)C1O (stereo not drawn) [ZINC9271779]
kass (FNO from M. smithii [1]): 1,147 ± 267 M^−1 s^−1
kdiss (FNO from M. smithii [1]): 0.0078 ± 0.0008 s⁻¹
Kd (FNO from M. smithii [1]; [6]): 6800 ± 1700 nM
Ki (FNO from M. smithii [3]; [7]): 1070 ± 340 nM

Further compounds by falling Kd (FNO from M. smithii [1]; [6]), results first:

kass (FNO from M. smithii [1]): 2,423 ± 116 M^−1 s^−1
kdiss (FNO from M. smithii [1]): 0.004 ± 0.001 s⁻¹
Kd (FNO from M. smithii [1]; [6]): 1650 ± 410 nM
Ki (FNO from M. smithii [3]; [7]): 970 ± 670 nM
SMILES: COc1cc(OC)c2c(C)c(CC(=O)NCC(=O)NCC(=O)O)c(=O)oc2c1 [ZINC2120951]

kon (FNO from M. smithii [1]): 29700 M⁻¹ s⁻¹
koff (FNO from M. smithii [1]): 0.0072 ± 0.0033 s⁻¹
Kd (FNO from M. smithii [1]; [6]): 240 ± 110 nM
Ki (FNO from M. smithii [3]; [8]): 205 ± 69 nM
SMILES: COc1ccc(-c2coc3cc(O[C@@H]4O[C@H](CO)[C@@H](O)[C@H](O)[C@H]4O)ccc3c2=O)cc1 [Ononin]

kass (FNO from M. smithii [1]): 20,406 ± 2,270 M^−1 s^−1
kdiss (FNO from M. smithii [1]): 0.005 ± 0.003 s⁻¹
Kd (FNO from M. smithii [1]; [6]): 230 ± 160 nM
Ki (FNO from M. smithii [3]; [7]): 210 ± 140 nM
SMILES: O=C(C=Cc1ccc(O)c(O)c1)OC1CC(O)(C(=O)O)CC(O)C1O (stereo not drawn) [5z-caffeoylquinic acid]

kon (FNO from M. smithii [1]): 35200 M⁻¹ s⁻¹
koff (FNO from M. smithii [1]): 0.0045 ± 0.0014 s⁻¹
Kd (FNO from M. smithii [1]; [6]): 130 ± 50 nM
increase of inhibitory potency from β-D-glucose pentaacetate (FNO from M. smithii [3]; 0.5 mM NADPH): approximately 100 fold
Ki (FNO from M. smithii [3]; [8]): 49 ± 14 nM
SMILES: Cc1cc(O)c2c(c1)C(=O)c1cc(O[C@@H]3O[C@@H](C)[C@H](O)[C@@H](O)[C@H]3O)cc(O)c1C2=O [Frangulin A]
